Measured values published in ChEMBL document CHEMBL3727355, “Chemokine receptor activity regulator” (2014).

biological target: T1, C-C chemokine receptor type 10 (Homo sapiens) (UniProt P46092); test: Antagonist activity against human CCR10 expressed in human KJMGER8 cells assessed as inhibition of human recombinant CTACK-induced increase in intracellular calcium level at 100 nmol/L pre-incubated for 30 mins before human recombinant CTACK stimulation for 5 mins by FLIPR assay; type: functional, cell-based
T1 sequence (whole entry): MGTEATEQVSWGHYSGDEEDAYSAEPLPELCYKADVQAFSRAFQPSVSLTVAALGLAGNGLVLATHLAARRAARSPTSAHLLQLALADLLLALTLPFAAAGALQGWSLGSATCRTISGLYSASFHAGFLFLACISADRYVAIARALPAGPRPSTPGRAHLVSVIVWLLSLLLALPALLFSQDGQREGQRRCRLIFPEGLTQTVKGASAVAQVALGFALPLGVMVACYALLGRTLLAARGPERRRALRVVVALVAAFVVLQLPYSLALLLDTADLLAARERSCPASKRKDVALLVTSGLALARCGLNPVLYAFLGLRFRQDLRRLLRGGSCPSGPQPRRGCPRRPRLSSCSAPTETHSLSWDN

SMILES	inhibition [%]
CCNS(=O)(=O)c1cnn2c(Nc3ccc(Cl)cc3C)c(C(=O)N3CCC(c4ccc(F)cc4)CC3)cnc12	> 100
CCNC(=O)NS(=O)(=O)c1cnn2c(NCc3ccccc3)c(C(=O)N3CCC(c4ccccc4)CC3)cnc12	95.1
Cc1cc(F)ccc1Nc1c(C(=O)N2CCC(c3ccc(F)cc3)CC2)cnc2c(S(=O)(=O)NC3CC3)cnn12	> 100
CCC(=O)NS(=O)(=O)c1cnn2c(Nc3cc(F)ccc3F)c(C(=O)N3CCC(c4ccc(F)cc4)CC3)cnc12	> 100
O=C(NS(=O)(=O)c1cnn2c(NCc3ccccc3)c(C(=O)N3CCC(c4ccccc4)CC3)cnc12)C1CC1	89.4
Cc1cc(F)ccc1Nc1c(C(=O)N2CCC(c3ccccc3)CC2)cnc2c(S(=O)(=O)NC(=O)N3CCOCC3)cnn12	85.9
CCNC(=O)NS(=O)(=O)c1cnn2c(Nc3ccccc3Cl)c(C(=O)N3CCC(c4ccc(F)cc4)CC3)cnc12	> 100
CCC(=O)NS(=O)(=O)c1cnn2c(Nc3cc(C)c(F)cc3Cl)c(C(=O)N3CCC(c4ccc(F)cc4)CC3)cnc12	> 100
CCNC(=O)NS(=O)(=O)c1cnn2c(Nc3cc(C)c(F)cc3Cl)c(C(=O)N3CCC(c4ccc(F)cc4)CC3)cnc12	> 100
CCNC(=O)NS(=O)(=O)c1cnn2c(Nc3ccc(Cl)c(Cl)c3)c(C(=O)N3CCC(c4ccc(F)cc4)CC3)cnc12	> 100
CCONS(=O)(=O)c1cnn2c(Nc3cc(Cl)ccc3Cl)c(C(=O)N3CCC(c4ccc(F)cc4)CC3)cnc12	> 100
CCC(=O)NS(=O)(=O)c1cnn2c(Nc3cc(C(F)(F)F)ccc3Cl)c(C(=O)N3CCC(c4ccc(F)cc4)CC3)cnc12	> 100
CCNS(=O)(=O)c1cnn2c(Nc3ccc(F)cc3C)c(C(=O)N3CCC(c4ccc(F)cc4)CC3)cnc12	> 100
COC(=O)NS(=O)(=O)c1cnn2c(Nc3ccc(F)cc3C)c(C(=O)N3CCC(c4ccccc4)CC3)cnc12	90.7
COCCNS(=O)(=O)c1cnn2c(Nc3ccccc3Cl)c(C(=O)N3CCC(c4ccc(F)cc4)CC3)cnc12	28.9

Results, then the compound that gave them:

inhibition [%]	SMILES
> 100	CCC(=O)NS(=O)(=O)c1cnn2c(Nc3cc(Cl)ccc3Cl)c(C(=O)N3CCC(c4ccc(F)cc4)CC3)cnc12
> 100	CC1(C(=O)NS(=O)(=O)c2cnn3c(Nc4cc(Cl)ccc4Cl)c(C(=O)N4CCC(c5ccc(F)cc5)CC4)cnc23)COC1
> 100	CC(=O)NS(=O)(=O)c1cnn2c(Nc3cc(C)ccc3Cl)c(C(=O)N3CCC4(CC3)OCc3ccccc34)cnc12
> 100	CC(=O)NS(=O)(=O)c1cnn2c(Nc3cc(Cl)ccc3F)c(C(=O)N3CCC(c4ccc(F)cc4)CC3)cnc12
> 100	O=C(NS(=O)(=O)c1cnn2c(Nc3cc(Cl)ccc3Cl)c(C(=O)N3CCC4(CC3)OCc3ccccc34)cnc12)C1CC1
> 100	CCNC(=O)NS(=O)(=O)c1cnn2c(Nc3cc(C)ccc3Cl)c(C(=O)N3CCC(c4ccc(F)cc4)CC3)cnc12
> 100	CCC(=O)NS(=O)(=O)c1cnn2c(Nc3ccc(C)cc3F)c(C(=O)N3CCC4(CC3)OCc3ccccc34)cnc12
> 100	Cc1ccc(Cl)c(Nc2c(C(=O)N3CCC4(CC3)OCc3ccccc34)cnc3c(S(=O)(=O)NC(=O)C4(C)COC4)cnn23)c1
> 100	Cc1ccc(F)c(Nc2c(C(=O)N3CCC4(CC3)OCc3ccccc34)cnc3c(S(=O)(=O)NC(=O)NC4CC4(F)F)cnn23)c1 (centres undefined)
> 100	CCC(=O)NS(=O)(=O)c1cnn2c(Nc3cc(Cl)ccc3Cl)c(C(=O)N3CCC4(CC3)OCc3ccccc34)cnc12
62.3	Cc1ccc(Cl)c(Nc2c(C(=O)N3CCC4(CC3)OCc3ccccc34)cnc3c(S(=O)(=O)NC(=O)NC4CCOCC4)cnn23)c1
> 100	CCC(=O)NS(=O)(=O)c1cnn2c(Nc3cc(C)ccc3F)c(C(=O)N3CCC(c4ccc(F)cc4)CC3)cnc12
> 100	CCNC(=O)NS(=O)(=O)c1cnn2c(Nc3ccc(C)cc3F)c(C(=O)N3CCC4(CC3)OCc3ccccc34)cnc12
> 100	CC(=O)NS(=O)(=O)c1cnn2c(Nc3ccc(F)cc3C)c(C(=O)N3CCC(c4ccccc4)CC3)cnc12
